Compound: C[C@@H](Oc1cc(-c2cnn(C3CCNCC3)c2)cnc1N)c1c(Cl)ccc(F)c1Cl [Crizotinib] + CC(=O)Nc1cccc(-n2c(=O)n(C3CC3)c(=O)c3c(Nc4ccc(I)cc4F)n(C)c(=O)c(C)c32)c1 [Trametinib] (partner 0.02 µM)
Experiment: relative viability (nuclei count vs DMSO), 5 days (fraction); higher = more cells survive
In short: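 For relative viability, nuclei counts in treated wells were divided by those in vehicle wells. Lung cancer cell lines had been pin-tool dosed in 1536-well plates the day after seeding and cultured for 5 days, then fixed and stained in one step (final 0.05% Triton X-100, 1% formaldehyde, 1 ug/ml Hoechst) and imaged at 4×. Doses were one drug alone or a fixed anchor-drug dose plus five library-drug doses (not always all listed) in √10 steps, and values are duplicate-plate medians.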

Cell Line	relative viability (first compound 0.01 µM)	relative viability (first compound 0.03162 µM)	relative viability (first compound 0.1 µM)	relative viability (first compound 0.3162 µM)	relative viability (first compound 1 µM)
NCI-H727	0.356	0.427	0.344	0.434	0.381
NCI-H838	0.474	0.513	0.576	0.515	0.498
NCI-H1355	0.416	0.409	0.45	0.396	0.404
NCI-H1395	0.951	1.05	1.04	0.971	1.1
NCI-H1437	0.542	0.577	0.544	0.457	0.608
NCI-H1648	–	0.462	0.539	0.483	0.463
NCI-H1650	0.548	0.605	0.607	0.559	0.58
NCI-H1651	0.802	0.832	0.822	0.792	0.803
NCI-H1666	0.838	0.865	0.866	–	0.902
NCI-H1734	0.684	0.621	0.629	–	0.67
NCI-H1755	0.776	0.744	0.85	0.756	0.742
NCI-H1792	0.492	0.526	0.365	–	0.453
NCI-H1915	0.286	0.31	0.32	0.293	0.313
NCI-H1944	0.408	0.426	0.428	0.372	0.417
NCI-H1975	0.338	0.326	0.363	0.373	0.402
NCI-H1993	0.631	0.454	0.506	1.07	0.46
NCI-H2009	0.268	0.277	0.26	0.217	0.301
NCI-H2023	0.487	0.489	0.484	0.343	0.468

Cell Line	relative viability (first compound 0.01 µM)	relative viability (first compound 0.03162 µM)	relative viability (first compound 0.1 µM)	relative viability (first compound 0.3162 µM)	relative viability (first compound 1 µM)
NCI-H2085	0.515	0.485	0.691	0.479	0.529
NCI-H2087	0.145	0.206	0.214	0.23	0.172
NCI-H2126	0.511	0.539	0.557	0.55	0.591
NCI-H2170	0.859	0.993	0.869	0.928	0.909
NCI-H2228	0.415	0.492	0.648	0.3	0.521
NCI-H2342	0.818	0.896	0.78	0.868	0.829
NCI-H2347	0.265	0.274	0.292	0.321	0.272
NCI-H2405	0.537	0.636	0.657	0.619	0.711
NCI-H3122	0.207	0.219	0.197	0.21	0.238
PC-3 [JPC-3]	0.634	0.721	0.759	–	0.651
PC-14	0.842	0.742	0.78	0.699	0.756
RERF-LC-KJ	0.955	0.885	0.831	0.827	0.905
SK-LU-1	0.455	0.396	0.539	0.457	0.512
SK-MES-1	0.511	0.561	0.54	0.621	0.57
SW 900	0.907	0.9	0.752	0.938	0.614
SW 1573	0.531	0.473	0.594	0.567	0.615
UMC-11	0.7	0.751	0.683	0.227	0.985

From the supplement of paper PMC10307832
